# Results taken from patent US11008572B2, “Methods and compositions for modulating splicing” (SKYHAWK THERAPEUTICS, INC., priority 2017, dated 2021).
# Like-named read-outs stand apart in the source and are kept apart here.
# Tests used:
# A-673 cells = experiment: Cell viability, crystal violet staining; assay type: cell-based; conditions: Homo sapiens
# Procedure, shortened: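 Readout is absorbance at 570 nm of crystal violet, taken up in 0.1 M sodium citrate in 50% ethanol after staining with 0.5% dye in 25% methanol. Plates held 5×10^3 cells per well, and compounds were added one day after seeding for 72 hours. Data are relative to vehicle, mean±SE.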
# IKBKAP^FL mRNA = experiment: IKBKAP splicing assay, qPCR; assay type: cell-based; conditions: 24 hours of incubation
# Experimental: (§1) Various cells lines were treated with the SMSMs described herein. RNA was then isolated, cDNA synthesized, qPCR performed and the levels of IKBKAP targets of the SMSMs were determined.
# (§2) On the day of the experiment, a 96-well plate was seeded with the cell lines of interest. The cells were diluted with full growth media to a concentration of 2.0×10^5 cells/mL and 100 μL of cells were added to each well (20,000 cells per well). The cells were treated with a compound immediately after plating.
# (§3) The compounds were then added to the cell plate using the HP compound dispenser. In the initial experiment, a top concentration of 10 μM and an 8 point 4-fold dilution scheme was used. The stock compounds were made at a concentration of 5 mM, and the DMSO concentration was set to 0.2%. DMSO was used to normalize all the compound-containing wells and the untreated cells.
# (§4) The treated cells were incubated at 37° C. in a 5% CO2 incubator for the desired amount of time. Plates were placed in a plastic bag with a wet paper towel to prevent evaporation.
# (§5) RNA was isolated using the Cells to CT kit (ThermoFisher, AM1728). The cells were washed once with 100 μL cold PBS. 50 μL of lysis buffer was added to each well/tube (49.5 μL lysis buffer+0.5 μL DNase I per well/tube). The lysis reaction was mixed and incubated at room temperature for 5 minutes. 5 μL of stop solution was added directly into each cell lysis reaction and mixed by pipetting up and down 5 times. The plates/tubes were incubated at room temperature for 2 minutes then placed on ice if the cDNA synthesis was to be performed immediately. Otherwise, the plates/tubes were stored at −80° C.
# (§6) cDNA synthesis reactions were then performed. 40 μL RT master mix was added to PCR tubes or plate wells. 10 μL of RNA was added to each tube/well. The RT thermal cycler program was then run and tubes or plate wells were incubated at 37° C. for 1 hour, then at 95° C. for 5 minutes to deactivate the enzyme.
# (§7) The qPCR was performed using a QuantStudio 6 instrument (ThermoFisher) and the following cycling conditions and according to the tables below. All samples and standards were analyzed in triplicate. Cycle 1: 2 minutes at 50° C. Cycle 2: 10 minutes at 95° C. Cycle 3 (repeat 40 times): 15 seconds at 95° C., 1 minute at 60° C.
# (§8) The determined IKBKAP^FL and […] isoform quantities were then used to determine the IKBKAP^FL: IKBKAP^Δ20 ratio at increasing SMSM compound concentrations. The PPIA quantities were used in the normalization to account of cell proliferation effects of the compounds.
# (§9) An assay to measure the IKBKAP^FL mRNA and IKBKAP^Δ20 mRNA simultaneously in cell wells was performed. The RNA values were measured relative to DMSO control and also included a housekeeping gene, PPIA to ensure data was consistent. The mRNA values were measured after 24 hours of incubation with the SMSM compounds.
# IKBKAP^Δ20 mRNA = experiment: IKBKAP splicing assay, qPCR; assay type: cell-based; conditions: 24 hours of incubation
# Experimental: as §1, §2, §3, §4, §5, §6, §7, §8, §9
# [1] = Splicing (IC50), Example 22; assay type: cell-based; conditions: spliced gene and cells not stated
# Experimental: A-673 cell viability […], splicing (IC50) and brain AUC/Plasma AUC of SMSMs were determined. As shown in the tables below SMSMs had high CNS exposure.
# A375 xenografts = experiment: A375 xenograft tumor growth inhibition; assay type: in vivo; conditions: immunocompromised nude mice with pre-existing A375 xenografts
# Experimental: Studies were performed to assess the effects of in vivo SMSM treatment on glioblastoma, breast, pancreatic, prostate, melanoma, lymphoma and Ewing sarcoma tumors. Studies were also performed to assess the effects of in vivo SMSM treatment on mRNA levels. Immunocompromised nude mice with pre-existing glioblastoma, breast, pancreatic, prostate, melanoma, lymphoma and Ewing sarcoma xenografts were treated with vehicle or SMSMs. Tumor tissues from subcutaneous xenografts were broken into a powder using a BioPulverizer (Biospec Products, Inc.). After SMSM treatment, mRNA was isolated from the xenografts and was analyzed by qRT-PCR.
# Tumor size was measured 2 times per week in two dimensions using a caliper. Studies were terminated when the tumor size in the vehicle treated group reached 2,000 mm^3. Each mouse was bled at 2 hrs after the last dose and at least 50 μl of plasma was collected from each mouse. All of the collected plasma samples and retainer dosing solutions for each dose level were used for bioanalytical measurements. All tumors were also collected and weighed. One necrosis-free tumor fragment of approximately 50 mg was taken from each tumor and flash-frozen for RNA isolation. […]
# The effects of in vivo SMSM treatments on pre-existing subcutaneous glioblastoma, breast, pancreatic, prostate, melanoma, lymphoma and Ewing sarcoma xenografts were assessed. […]
# [2] = A673, cell viability, read-out: A-673 IC50 (nM) Cell viability
# [3] = A673, read-out: A-673 cell viability (IC50)
Compound,IC50 (A-673 cells; [2]) [nM],EC50 (IKBKAP^FL mRNA) [nM],IC50 (IKBKAP^Δ20 mRNA) [nM],IC50 [1] [nM],"tumor growth inhibition (TGI), in words (A375 xenografts)",IC50 (A-673 cells; [3]) [nM]
"CN(c1ccc(-c2ccc(-c3cn[nH]c3)cc2O)nn1)[C@@H]1C[C@H]2CC[C@@H](C1)N2 [compound 138, 2-(6-(((1R,3s,5S)-8-azabicyclo[3.2.1]octan-3-yl)(methyl)amino)pyridazin-3-yl)-5-(1H-pyrazol-4-yl)phenol]",10 to 100,101 to 350,201 to 1000,,,
"CN(c1ccc(-c2ccc(-c3cn[nH]c3)cc2O)nn1)[C@H]1C[C@]2(C)CC[C@](C)(C1)N2 [compound 151, 2-(6-(((1R,3s,5S)-1,5-dimethyl-8-azabicyclo[3.2.1]octan-3-yl)(methyl)amino)pyridazin-3-yl)-5-(1H-pyrazol-4-yl)phenol]",< 10,,,< 1,led to tumor growth inhibition,≤ 5
"CN(c1ccc(-c2ccc(-c3cn[nH]c3)cc2O)nn1)[C@@H]1C[C@H]2CCC[C@@H](C1)N2 [compound 160, 2-(6-(((1R,3s,5S)-9-azabicyclo[3.3.1]nonan-3-yl)(methyl)amino)pyridazin-3-yl)-5-(1H-pyrazol-4-yl)phenol]",< 10,< 100,< 200,< 1,led to tumor growth inhibition,≤ 5
